Measurements taken from article PMC8213057, “Targeting ALK2: An Open Science Approach to Developing Therapeutics for the Treatment of Diffuse Intrinsic Pontine Glioma” (Journal of Medicinal Chemistry, 2020).

What was measured:
[1] = target: T1, JAK3 (Homo sapiens, UniProt P52333); experiment: biochemical; conditions: read-out: % enzyme activity, 1 μM; Run 1, Run 2
T1 sequence (P52333 1-1124): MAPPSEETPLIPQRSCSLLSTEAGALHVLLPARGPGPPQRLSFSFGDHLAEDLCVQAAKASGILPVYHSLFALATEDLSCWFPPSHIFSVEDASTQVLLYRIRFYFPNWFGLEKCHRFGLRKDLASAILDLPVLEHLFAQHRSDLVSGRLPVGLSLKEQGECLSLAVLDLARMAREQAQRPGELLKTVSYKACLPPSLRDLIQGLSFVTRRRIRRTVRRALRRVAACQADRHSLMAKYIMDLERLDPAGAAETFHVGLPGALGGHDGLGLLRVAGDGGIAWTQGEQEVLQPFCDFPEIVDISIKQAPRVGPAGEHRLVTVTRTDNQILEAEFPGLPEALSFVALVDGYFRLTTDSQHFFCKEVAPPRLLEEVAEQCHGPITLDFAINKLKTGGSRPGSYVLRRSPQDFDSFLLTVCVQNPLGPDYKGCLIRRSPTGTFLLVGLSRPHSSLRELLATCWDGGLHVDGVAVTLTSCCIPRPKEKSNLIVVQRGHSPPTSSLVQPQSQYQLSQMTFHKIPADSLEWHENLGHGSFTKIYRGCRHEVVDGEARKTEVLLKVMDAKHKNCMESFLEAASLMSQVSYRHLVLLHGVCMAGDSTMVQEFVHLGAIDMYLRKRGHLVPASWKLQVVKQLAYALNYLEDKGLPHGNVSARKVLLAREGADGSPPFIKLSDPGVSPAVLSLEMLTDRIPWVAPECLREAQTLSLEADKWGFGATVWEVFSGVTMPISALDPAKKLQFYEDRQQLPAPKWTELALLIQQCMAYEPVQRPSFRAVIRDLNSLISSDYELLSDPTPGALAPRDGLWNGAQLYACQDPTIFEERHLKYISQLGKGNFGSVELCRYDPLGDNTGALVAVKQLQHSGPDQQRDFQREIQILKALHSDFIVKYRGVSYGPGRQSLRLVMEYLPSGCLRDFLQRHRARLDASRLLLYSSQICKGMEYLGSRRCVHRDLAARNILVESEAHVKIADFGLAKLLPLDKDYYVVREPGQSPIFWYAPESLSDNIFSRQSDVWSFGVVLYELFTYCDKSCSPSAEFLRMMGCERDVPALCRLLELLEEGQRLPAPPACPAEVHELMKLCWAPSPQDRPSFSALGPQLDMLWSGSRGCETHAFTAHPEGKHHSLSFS

[2] = target: T2, HIPK4 (Homo sapiens, UniProt Q8NE63); conditions: 1 μM; Run 1, Run 2
T2 sequence (Q8NE63 1-616): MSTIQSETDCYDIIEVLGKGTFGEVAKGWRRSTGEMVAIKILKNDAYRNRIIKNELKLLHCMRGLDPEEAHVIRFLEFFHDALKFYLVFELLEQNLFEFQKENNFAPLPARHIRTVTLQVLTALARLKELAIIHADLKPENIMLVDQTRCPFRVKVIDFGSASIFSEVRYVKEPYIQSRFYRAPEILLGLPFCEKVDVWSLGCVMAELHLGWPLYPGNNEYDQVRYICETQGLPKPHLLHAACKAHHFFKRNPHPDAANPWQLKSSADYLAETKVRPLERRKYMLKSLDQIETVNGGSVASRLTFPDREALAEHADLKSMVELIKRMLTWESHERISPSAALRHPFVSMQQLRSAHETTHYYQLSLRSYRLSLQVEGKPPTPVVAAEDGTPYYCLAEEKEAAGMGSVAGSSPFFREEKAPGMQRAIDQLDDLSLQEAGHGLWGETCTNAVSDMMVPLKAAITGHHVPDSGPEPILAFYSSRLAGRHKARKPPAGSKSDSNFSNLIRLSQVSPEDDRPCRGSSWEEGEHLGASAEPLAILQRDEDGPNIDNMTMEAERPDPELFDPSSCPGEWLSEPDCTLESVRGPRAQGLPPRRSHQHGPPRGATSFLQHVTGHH

[3] = target: T3, YSK4/MAP3K19 (Homo sapiens, UniProt Q56UN5); conditions: 1 μM; Run 1, Run 2
T3 sequence (Q56UN5 1-1328): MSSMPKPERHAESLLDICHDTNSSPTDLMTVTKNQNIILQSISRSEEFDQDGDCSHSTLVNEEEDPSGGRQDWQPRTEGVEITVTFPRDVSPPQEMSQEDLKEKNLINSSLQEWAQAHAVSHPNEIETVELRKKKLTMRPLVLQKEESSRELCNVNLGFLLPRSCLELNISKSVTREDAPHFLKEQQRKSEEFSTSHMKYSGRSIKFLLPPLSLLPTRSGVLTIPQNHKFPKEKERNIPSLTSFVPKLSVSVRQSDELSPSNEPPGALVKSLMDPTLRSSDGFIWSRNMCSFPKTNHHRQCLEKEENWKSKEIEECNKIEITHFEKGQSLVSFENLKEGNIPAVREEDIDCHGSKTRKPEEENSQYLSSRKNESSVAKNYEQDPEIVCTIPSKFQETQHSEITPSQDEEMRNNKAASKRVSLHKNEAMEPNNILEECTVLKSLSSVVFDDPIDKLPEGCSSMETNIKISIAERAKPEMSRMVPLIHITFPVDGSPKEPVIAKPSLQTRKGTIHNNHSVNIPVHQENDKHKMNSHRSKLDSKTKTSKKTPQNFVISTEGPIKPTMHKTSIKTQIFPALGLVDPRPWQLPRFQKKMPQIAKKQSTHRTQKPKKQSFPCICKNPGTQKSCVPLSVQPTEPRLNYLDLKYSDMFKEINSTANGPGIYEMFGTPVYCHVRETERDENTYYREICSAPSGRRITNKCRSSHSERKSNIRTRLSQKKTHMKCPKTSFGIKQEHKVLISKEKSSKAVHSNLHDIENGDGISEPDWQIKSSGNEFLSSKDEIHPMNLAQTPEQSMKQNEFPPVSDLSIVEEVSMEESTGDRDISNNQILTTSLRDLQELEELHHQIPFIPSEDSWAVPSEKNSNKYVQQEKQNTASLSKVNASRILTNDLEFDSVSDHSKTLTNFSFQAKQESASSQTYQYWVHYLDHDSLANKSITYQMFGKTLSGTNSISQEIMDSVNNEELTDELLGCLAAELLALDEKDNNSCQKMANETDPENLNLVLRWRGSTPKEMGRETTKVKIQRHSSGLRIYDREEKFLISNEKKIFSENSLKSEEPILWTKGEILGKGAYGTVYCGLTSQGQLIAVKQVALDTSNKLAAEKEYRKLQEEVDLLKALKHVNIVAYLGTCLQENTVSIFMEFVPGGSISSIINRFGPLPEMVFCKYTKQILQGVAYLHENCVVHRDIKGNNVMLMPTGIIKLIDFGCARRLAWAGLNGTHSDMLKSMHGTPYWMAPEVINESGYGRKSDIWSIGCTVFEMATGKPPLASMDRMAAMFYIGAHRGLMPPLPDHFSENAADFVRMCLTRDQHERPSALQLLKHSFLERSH

Row | SMILES | remaining activity at 1 µM [1] [%] | % enzyme activity [2] [%] | % enzyme activity [3] [%]
1 | COc1cc(-c2cncc(-c3ccc(N4CCN(C)CC4)cc3)c2C)cc(F)c1C(N)=O [Compound 26a, 2-Fluoro-6-methoxy-4-(4-methyl-5-(4-(4-methylpiperazin-1-yl)phenyl)pyridin-3-yl)benzamide] | 106 | 102.90 | 97.39
2 | COc1cc(-c2cncc(-c3ccc(N4C[C@@H](C)N(C)[C@@H](C)C4)cc3)c2C)cc(F)c1C(N)=O [Compound 26c, 2-Fluoro-6-methoxy-4-(4-methyl-5-(4-((3R,5S)-3,4,5-trimethylpiperazin-1-yl)phenyl)pyridin-3-yl)benzamide] | 101 | 97.53 | 96.61
